#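 Each compound was tested at five concentrations against cells in 96-well plates for 48 hours. TGI: total growth inhibition.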
# Tests used:
# Experiment in all cases: DTP human tumour cell line panel, 48 h
# SF-268 CNS = system: SF-268 CNS
# IGROV1 ovarian = system: IGROV1 ovarian
# NCI/ADR-RES ovarian = system: NCI/ADR-RES ovarian
# NCI-H460 lung = system: NCI-H460 lung
# OVCAR-5 ovarian = system: OVCAR-5 ovarian
# M14 melanoma = system: M14 melanoma
# NCI-H226 lung = system: NCI-H226 lung
# A549 NSCLC = system: A549 NSCLC
# 786-0 renal = system: 786-0 renal
# HS 578T breast = system: HS 578T breast
# OVCAR-4 ovarian = system: OVCAR-4 ovarian
# HCT-15 colon = system: HCT-15 colon
# SW-620 colon = system: SW-620 colon
# RXF 393 renal = system: RXF 393 renal
# HT29 colon = system: HT29 colon
# RPMI-8226 leukemia = system: RPMI-8226 leukemia
# HOP-62 NSCLC = system: HOP-62 NSCLC
# SK-MEL-2 melanoma = system: SK-MEL-2 melanoma
# SK-MEL-5 melanoma = system: SK-MEL-5 melanoma
# SNB-19 CNS = system: SNB-19 CNS
# ACHN renal = system: ACHN renal
# MDA-N = system: MDA-N
# COLO 205 colon = system: COLO 205 colon
# EKVX NSCLC = system: EKVX NSCLC
# U251 CNS = system: U251 CNS
# SF-539 CNS = system: SF-539 CNS
# SR leukemia = system: SR leukemia
# CAKI-1 renal = system: CAKI-1 renal
# MOLT-4 leukemia = system: MOLT-4 leukemia
# TK-10 renal = system: TK-10 renal
# MDA-MB-231 breast = system: MDA-MB-231 breast
# CCRF-CEM leukemia = system: CCRF-CEM leukemia
# HL-60(TB) leukemia = system: HL-60(TB) leukemia
# SNB-75 CNS = system: SNB-75 CNS
# BT-549 breast = system: BT-549 breast
# MDA-MB-435 = system: MDA-MB-435
# SK-OV-3 ovarian = system: SK-OV-3 ovarian
# OVCAR-3 ovarian = system: OVCAR-3 ovarian
# SF-295 CNS = system: SF-295 CNS
# DU-145 prostate = system: DU-145 prostate
# UACC-257 melanoma = system: UACC-257 melanoma
# NCI-H23 lung = system: NCI-H23 lung
# KM12 colon = system: KM12 colon
# OVCAR-8 ovarian = system: OVCAR-8 ovarian
# MALME-3M melanoma = system: MALME-3M melanoma
# HCC-2998 colon = system: HCC-2998 colon
# T-47D breast = system: T-47D breast
# UO-31 renal = system: UO-31 renal
# HOP-92 NSCLC = system: HOP-92 NSCLC
# HCT-116 colon = system: HCT-116 colon
# MCF7 breast = system: MCF7 breast
# NCI-H522 lung = system: NCI-H522 lung
# UACC-62 melanoma = system: UACC-62 melanoma
# LOX IMVI melanoma = system: LOX IMVI melanoma
# A498 renal = system: A498 renal
# K-562 leukemia = system: K-562 leukemia
# SN12C renal = system: SN12C renal
# SK-MEL-28 melanoma = system: SK-MEL-28 melanoma
# PC-3 prostate = system: PC-3 prostate
smiles,measurement,setting,value
O=C(N/N=C/c1ccc([N+](=O)[O-])cc1)Nc1ccc(C(=O)O)cc1,TGI,SF-268 CNS,> 100 µM
same,TGI,IGROV1 ovarian,> 100 µM
same,TGI,NCI/ADR-RES ovarian,> 100 µM
same,TGI,NCI-H460 lung,> 100 µM
same,TGI,OVCAR-5 ovarian,> 100 µM
same,TGI,M14 melanoma,> 100 µM
same,TGI,NCI-H226 lung,85.8 µM
same,TGI,A549 NSCLC,> 100 µM
same,TGI,786-0 renal,> 100 µM
same,TGI,HS 578T breast,> 100 µM
same,TGI,OVCAR-4 ovarian,> 100 µM
same,TGI,HCT-15 colon,> 100 µM
same,TGI,SW-620 colon,> 100 µM
same,TGI,RXF 393 renal,> 100 µM
same,TGI,HT29 colon,> 100 µM
same,TGI,RPMI-8226 leukemia,> 100 µM
same,TGI,HOP-62 NSCLC,75 µM
same,TGI,SK-MEL-2 melanoma,83.9 µM
same,TGI,SK-MEL-5 melanoma,45.9 µM
same,TGI,SNB-19 CNS,> 100 µM
same,TGI,ACHN renal,99.4 µM
same,TGI,MDA-N,> 100 µM
same,TGI,COLO 205 colon,81 µM
same,TGI,EKVX NSCLC,77 µM
same,TGI,U251 CNS,> 100 µM
same,TGI,SF-539 CNS,> 100 µM
same,TGI,SR leukemia,> 100 µM
same,TGI,CAKI-1 renal,> 100 µM
same,TGI,MOLT-4 leukemia,> 100 µM
same,TGI,TK-10 renal,> 100 µM
same,TGI,MDA-MB-231 breast,> 100 µM
same,TGI,CCRF-CEM leukemia,> 100 µM
same,TGI,HL-60(TB) leukemia,> 100 µM
same,TGI,SNB-75 CNS,> 100 µM
same,TGI,BT-549 breast,> 100 µM
same,TGI,MDA-MB-435,> 100 µM
same,TGI,SK-OV-3 ovarian,70.8 µM
same,TGI,OVCAR-3 ovarian,26 µM
same,TGI,SF-295 CNS,63.7 µM
same,TGI,DU-145 prostate,> 100 µM
same,TGI,UACC-257 melanoma,> 100 µM
same,TGI,NCI-H23 lung,> 100 µM
same,TGI,KM12 colon,> 100 µM
same,TGI,OVCAR-8 ovarian,> 100 µM
same,TGI,MALME-3M melanoma,> 100 µM
same,TGI,HCC-2998 colon,52.6 µM
same,TGI,T-47D breast,49.5 µM
same,TGI,UO-31 renal,> 100 µM
same,TGI,HOP-92 NSCLC,92.1 µM
same,TGI,HCT-116 colon,> 100 µM
same,TGI,MCF7 breast,> 100 µM
same,TGI,NCI-H522 lung,58 µM
same,TGI,UACC-62 melanoma,> 100 µM
same,TGI,LOX IMVI melanoma,> 100 µM
same,TGI,A498 renal,65.1 µM
same,TGI,K-562 leukemia,> 100 µM
same,TGI,SN12C renal,> 100 µM
same,TGI,SK-MEL-28 melanoma,> 100 µM
same,TGI,PC-3 prostate,> 100 µM
C[N+](C)(C)c1ncnc2c1ncn2C1CC(O)C(CO)O1 (stereo not drawn),TGI,SF-268 CNS,> 100 µM
same,TGI,IGROV1 ovarian,> 100 µM
same,TGI,NCI/ADR-RES ovarian,> 100 µM
same,TGI,NCI-H460 lung,> 100 µM
same,TGI,OVCAR-5 ovarian,> 100 µM
same,TGI,M14 melanoma,> 100 µM
same,TGI,NCI-H226 lung,> 100 µM
same,TGI,A549 NSCLC,> 100 µM
same,TGI,786-0 renal,> 100 µM
same,TGI,HS 578T breast,> 100 µM
same,TGI,OVCAR-4 ovarian,> 100 µM
same,TGI,HCT-15 colon,> 100 µM
same,TGI,SW-620 colon,> 100 µM
same,TGI,RXF 393 renal,> 100 µM
same,TGI,HT29 colon,> 100 µM
same,TGI,RPMI-8226 leukemia,> 100 µM
same,TGI,HOP-62 NSCLC,> 100 µM
same,TGI,SK-MEL-2 melanoma,> 100 µM
same,TGI,SK-MEL-5 melanoma,> 100 µM
same,TGI,SNB-19 CNS,> 100 µM
same,TGI,ACHN renal,> 100 µM
same,TGI,MDA-N,> 100 µM
same,TGI,COLO 205 colon,> 100 µM
same,TGI,EKVX NSCLC,> 100 µM
same,TGI,U251 CNS,> 100 µM
same,TGI,SF-539 CNS,> 100 µM
same,TGI,SR leukemia,> 100 µM
same,TGI,CAKI-1 renal,> 100 µM
same,TGI,MOLT-4 leukemia,> 100 µM
same,TGI,TK-10 renal,> 100 µM
same,TGI,MDA-MB-231 breast,> 100 µM
same,TGI,CCRF-CEM leukemia,> 100 µM
same,TGI,HL-60(TB) leukemia,> 100 µM
same,TGI,SNB-75 CNS,> 100 µM
same,TGI,BT-549 breast,> 100 µM
same,TGI,MDA-MB-435,> 100 µM
same,TGI,SK-OV-3 ovarian,> 100 µM
same,TGI,OVCAR-3 ovarian,> 100 µM
same,TGI,SF-295 CNS,> 100 µM
same,TGI,DU-145 prostate,> 100 µM
same,TGI,UACC-257 melanoma,> 100 µM
same,TGI,NCI-H23 lung,> 100 µM
same,TGI,KM12 colon,> 100 µM
same,TGI,OVCAR-8 ovarian,> 100 µM
same,TGI,MALME-3M melanoma,> 100 µM
same,TGI,HCC-2998 colon,> 100 µM
same,TGI,T-47D breast,> 100 µM
same,TGI,UO-31 renal,> 100 µM
same,TGI,HOP-92 NSCLC,> 100 µM
same,TGI,HCT-116 colon,> 100 µM
same,TGI,MCF7 breast,> 100 µM
same,TGI,NCI-H522 lung,> 100 µM
same,TGI,UACC-62 melanoma,> 100 µM
same,TGI,LOX IMVI melanoma,> 100 µM
same,TGI,A498 renal,> 100 µM
same,TGI,K-562 leukemia,> 100 µM
same,TGI,SN12C renal,> 100 µM
same,TGI,SK-MEL-28 melanoma,> 100 µM
same,TGI,PC-3 prostate,> 100 µM

# — PubChem BioAssay (NCI)
